Experimental data published in patent publication US6403343B2, “Method of producing a taxane-type diterpene and a method of obtaining cultured cells which produce the taxane-type dilterpene at a high rate” (Mitsui Chemicals, Inc., priority 1993, dated 2002).
Read-outs that look alike come from different tables or passages of the source.

What was measured:
[1] = system: cultured cells of Taxus baccata LINN; conditions: 2 mM in medium
Procedure: The procedure of Example 78 was carried out except that the nutrition source was not added midway.

[2] = system: cultured cells of Taxus baccata LINN; conditions: 3 mM in fresh medium, continuous culture
Procedure: The amount of the taxol contained in the cells and the medium were measured in the same manner as that used in Example 1.

[3] = system: cultured cells of Taxus baccata LINN; assay: Growth rate and taxane yield, 21-day shake culture of Taxus baccata cells with heavy metal compound, amine, antiethylene agent or Ethrel added; format: cell-based
[4] = nutrition source added continuously day 2-14, 21 days
[5] = nutrition source not added midway, 21 days
[6] = 2×10^−4 M added 5 times at 4 days' intervals from day 0, total 10^−3 M
[7] = 10^−1 M added at start, 21 days
[8] = 10^−2 M added at start, 21 days
[9] = 10^−3 M added at start, 21 days
[10] = 10^−3 M added on 7th day, 14 more days
[11] = 10^−3 M added on 14th day, 7 more days
[12] = 10^−3 M added on 18th day, 3 more days
[13] = 10^−3 M at start + methyl jasmonate 10^−4 M on 14th day
[14] = 10^−3 M at start + methyl jasmonate 10^−4 M on 14th day, oxygen 10% in the gas phase
[15] = 10^−3 M at start, oxygen 10% in the gas phase
[16] = 10^−4 M added at start, 21 days
[17] = 10^−5 M added at start, 21 days
[18] = 10^−6 M added at start, 21 days
[19] = 10^−7 M added at start, 21 days
[20] = 10^−8 M added at start, 21 days
[21] = 10^−9 M added at start, 21 days

With O=S([O-])([O-])=S.[Ag+].[Ag+] [silver thiosulfate, [Ag(S2O3)2]^3−] the yield of cells [1, 4] was 38 g dried weight/l, the “yield of taxol from cells” value [1, 4] was 31 mg/L and the “yield of taxol from medium” value [1, 4] was 89 mg/L. For the same compound, the “yield of taxol total” value [1, 4] was 125 mg/L, the yield of cells [1, 5] was 22 g dried weight/l and the “yield of taxol from cells” value [1, 5] was 33 mg/L. For the same compound, the “yield of taxol from medium” value [1, 5] was 27 mg/L, the “yield of taxol total” value [1, 5] was 60 mg/L and the productivity of taxol ([2]; stationary state) was 8.8 mg/L/day. The taxol produced ([2]; stationary state of 60 days) was 525 mg, the growth rate ([3]; 1 M added at start, 21 days) was 1.2 times and the “total yield of taxane” value ([3]; 1 M added at start, 21 days) was 0.64 mg/L. For the same compound, the “yield of baccatin III” value ([3]; 1 M added at start, 21 days) was 0.08 mg/L, the yield of cephalomannine ([3]; 1 M added at start, 21 days) was 0.36 mg/L and the yield of taxol ([3]; 1 M added at start, 21 days) was 0.20 mg/L. For the same compound, the growth rate [3, 6] was 2.4 times, the “total yield of taxane” value [3, 6] was 32.36 mg/L and the “yield of baccatin III” value [3, 6] was 4.15 mg/L. For the same compound, the yield of cephalomannine [3, 6] was 7.27 mg/L, the yield of taxol [3, 6] was 20.94 mg/L and the growth rate [3, 7] was 1.9 times. For the same compound, the “total yield of taxane” value [3, 7] was 3.78 mg/L, the “yield of baccatin III” value [3, 7] was 0.26 mg/L and the yield of cephalomannine [3, 7] was 2.15 mg/L. The yield of taxol [3, 7] was 1.37 mg/L, the growth rate [3, 8] was 2.3 times and the “total yield of taxane” value [3, 8] was 12.02 mg/L. For the same compound, the “yield of baccatin III” value [3, 8] was 0.72 mg/L, the yield of cephalomannine [3, 8] was 5.50 mg/L and the yield of taxol [3, 8] was 5.80 mg/L. The growth rate [3, 9] was 2.7 times, the “total yield of taxane” value [3, 9] was 58.99 mg/L and the “yield of baccatin III” value [3, 9] was 27.90 mg/L. For the same compound, the yield of cephalomannine [3, 9] was 5.96 mg/L, the yield of taxol [3, 9] was 25.13 mg/L and the growth rate [3, 10] was 2.2 times. For the same compound, the “total yield of taxane” value [3, 10] was 27.21 mg/L, the “yield of baccatin III” value [3, 10] was 11.71 mg/L and the yield of cephalomannine [3, 10] was 4.86 mg/L. The yield of taxol [3, 10] was 10.64 mg/L, the growth rate [3, 11] was 2.5 times and the “total yield of taxane” value [3, 11] was 10.59 mg/L. The “yield of baccatin III” value [3, 11] was 2.29 mg/L, the yield of cephalomannine [3, 11] was 3.83 mg/L and the yield of taxol [3, 11] was 4.47 mg/L. For the same compound, the growth rate [3, 12] was 2.9 times, the “total yield of taxane” value [3, 12] was 3.27 mg/L and the “yield of baccatin III” value [3, 12] was 0.28 mg/L. For the same compound, the yield of cephalomannine [3, 12] was 1.44 mg/L, the yield of taxol [3, 12] was 1.55 mg/L and the growth rate [3, 13] was 2.7 times. The “total yield of taxane” value [3, 13] was 71.32 mg/L, the “yield of baccatin III” value [3, 13] was 25.14 mg/L and the yield of cephalomannine [3, 13] was 12.57 mg/L. For the same compound, the yield of taxol [3, 13] was 33.61 mg/L, the growth rate [3, 14] was 2.7 times and the “total yield of taxane” value [3, 14] was 74.07 mg/L. For the same compound, the “yield of baccatin III” value [3, 14] was 27.00 mg/L, the yield of cephalomannine [3, 14] was 12.34 mg/L and the yield of taxol [3, 14] was 34.73 mg/L. For the same compound, the growth rate [3, 15] was 2.7 times, the “total yield of taxane” value [3, 15] was 59.34 mg/L and the “yield of baccatin III” value [3, 15] was 22.81 mg/L. The yield of cephalomannine [3, 15] was 9.08 mg/L, the yield of taxol [3, 15] was 27.45 mg/L and the growth rate [3, 16] was 2.7 times. The “total yield of taxane” value [3, 16] was 27.26 mg/L, the “yield of baccatin III” value [3, 16] was 7.62 mg/L and the yield of cephalomannine [3, 16] was 5.11 mg/L. For the same compound, the yield of taxol [3, 16] was 14.53 mg/L, the growth rate [3, 17] was 2.7 times and the “total yield of taxane” value [3, 17] was 13.18 mg/L. The “yield of baccatin III” value [3, 17] was 1.13 mg/L, the yield of cephalomannine [3, 17] was 4.10 mg/L and the yield of taxol [3, 17] was 7.95 mg/L. The growth rate [3, 18] was 2.6 times, the “total yield of taxane” value [3, 18] was 5.72 mg/L and the “yield of baccatin III” value [3, 18] was 1.06 mg/L. For the same compound, the yield of cephalomannine [3, 18] was 2.86 mg/L, the yield of taxol [3, 18] was 1.80 mg/L and the growth rate [3, 19] was 2.7 times. For the same compound, the “total yield of taxane” value [3, 19] was 4.38 mg/L, the “yield of baccatin III” value [3, 19] was 0.34 mg/L and the yield of cephalomannine [3, 19] was 2.47 mg/L. For the same compound, the yield of taxol [3, 19] was 1.57 mg/L, the growth rate [3, 20] was 2.8 times and the “total yield of taxane” value [3, 20] was 2.02 mg/L. For the same compound, the “yield of baccatin III” value [3, 20] was 0.29 mg/L, the yield of cephalomannine [3, 20] was 0.97 mg/L and the yield of taxol [3, 20] was 0.76 mg/L. The growth rate [3, 21] was 2.7 times, the “total yield of taxane” value [3, 21] was 1.09 mg/L and the “yield of baccatin III” value [3, 21] was 0.20 mg/L. The yield of cephalomannine [3, 21] was 0.56 mg/L and the yield of taxol [3, 21] was 0.33 mg/L.
